We go through 24 molecules from US7786141B2 (Vertex Pharmaceuticals Incorporated, priority 2004, dated 2010).

One experiment deals with T1, M1 muscarinic receptor (Homo sapiens, UniProt P11229).
T1 construct: expressed in transfected cells; host or cells: CHO (M1-CHO)
T1 sequence (P11229 1-460): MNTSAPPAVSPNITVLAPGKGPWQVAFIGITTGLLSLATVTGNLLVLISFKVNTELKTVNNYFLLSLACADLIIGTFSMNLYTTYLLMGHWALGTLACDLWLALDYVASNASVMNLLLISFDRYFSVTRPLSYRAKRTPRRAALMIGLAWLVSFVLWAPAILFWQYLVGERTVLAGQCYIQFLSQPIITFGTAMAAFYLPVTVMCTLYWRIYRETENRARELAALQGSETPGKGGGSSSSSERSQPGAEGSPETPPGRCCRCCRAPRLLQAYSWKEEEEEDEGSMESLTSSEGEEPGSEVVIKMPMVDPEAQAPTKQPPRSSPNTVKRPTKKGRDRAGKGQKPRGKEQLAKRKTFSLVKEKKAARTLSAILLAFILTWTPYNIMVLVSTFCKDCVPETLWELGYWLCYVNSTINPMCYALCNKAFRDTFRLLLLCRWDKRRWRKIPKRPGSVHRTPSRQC
Briefly: Functional mobilization of intracellular calcium (FLIPR) in M1-CHO cells. It counts as cell-based. As to conditions: M1 receptor, calcium mobilization; for Emax: read-out: M1 Efficacy. Summed up: (§1)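 CHO cells stably expressing human M1 or M4 receptor were loaded with Fluo-3 AM (or Calcium 3 dye) in Hepes-buffered saline, pH 7.4, with 1 mM probenecid, 0.5% final DMSO. Agonist mode: compound added directly; antagonist mode: 15 min preincubation before carbachol at EC80. FLIPR fluorescence recorded 60 sec.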
A general note: Calcium flux is commonly read through the fluorescence of an indicator in the cells.

A further experiment has as its target T2, M4 muscarinic receptor (Homo sapiens, UniProt P08173).
T2 construct: expressed in transfected cells; host or cells: CHO (M4-CHO)
T2 sequence (P08173 1-479): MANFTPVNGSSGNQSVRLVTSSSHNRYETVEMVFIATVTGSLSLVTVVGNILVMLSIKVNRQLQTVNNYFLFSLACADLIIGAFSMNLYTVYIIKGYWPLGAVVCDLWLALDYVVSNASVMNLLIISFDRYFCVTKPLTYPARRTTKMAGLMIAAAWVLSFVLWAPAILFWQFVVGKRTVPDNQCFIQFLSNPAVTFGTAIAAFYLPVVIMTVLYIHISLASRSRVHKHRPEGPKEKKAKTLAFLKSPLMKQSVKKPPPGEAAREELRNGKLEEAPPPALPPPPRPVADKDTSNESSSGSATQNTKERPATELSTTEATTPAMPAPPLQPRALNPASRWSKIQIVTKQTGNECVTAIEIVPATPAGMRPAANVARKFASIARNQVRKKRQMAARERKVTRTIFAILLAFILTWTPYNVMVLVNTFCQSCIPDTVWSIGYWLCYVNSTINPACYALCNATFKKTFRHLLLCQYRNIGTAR
Description: Functional mobilization of intracellular calcium (FLIPR) in M4-CHO cells. It counts as cell-based. As to conditions: M4 receptor, calcium mobilization; for Emax: read-out: M4 Efficacy. In a few lines:
as §1

As for `COCCOC(=O)N1C2CCC1CC(N1CCC3(CC1)CN(C(=O)N(C)C)c1ccc(F)cc13)C2` (stereo not drawn) [compound 119], at M1 muscarinic receptor, the “M1 Activity” value is recorded as “xxx (activity was measured to be less than 0.1 μM)” and the Emax is under 65%. Further, on M4 muscarinic receptor, the “M4 Activity” value is recorded as “x (activity was measured to be greater than 1.0 μM)” and the Emax was under 65%.

Turning to `CN(C)C(=O)N1CC2(CCN(C3CCN(C(=O)O[C@H]4CCOC4)CC3)CC2)c2cc(F)ccc21` [compound 120], on M1 muscarinic receptor, the “M1 Activity” value is “xx (activity was measured to be between 0.1 μM and 1.0 μM)”; the Emax is under 65%. In addition, at M4 muscarinic receptor, the “M4 Activity” value is recorded as “x (activity was measured to be greater than 1.0 μM)” and the Emax is under 65%.

As to `CS(=O)(=O)N1CC2(CCN(C3CC4CCC(C3)N4C(=O)OC3CCC3)CC2)c2cc(F)ccc21` (stereo not drawn) [compound 122], at M1 muscarinic receptor, the “M1 Activity” value is “xxx (activity was measured to be less than 0.1 μM)” and the Emax fell in the range of 65 to 85%. In addition, on M4 muscarinic receptor, the “M4 Activity” value is “xx (activity was measured to be between 0.1 μM and 1.0 μM)”; the Emax is under 65%.

With `O=C(OC1CCC1)N1C2CCC1CC(N1CCC3(CC1)COc1ccc(F)cc13)C2` (stereo not drawn) [compound 123], at M1 muscarinic receptor, the “M1 Activity” value was “xx (activity was measured to be between 0.1 μM and 1.0 μM)”; the Emax is under 65%. At M4 muscarinic receptor, the “M4 Activity” value is recorded as “x (activity was measured to be greater than 1.0 μM)” and the Emax is under 65%.

Turning to `O=C(OCC(F)(F)F)N1C2CCC1CC(N1CCC3(CC1)COc1ccc(F)cc13)C2` (stereo not drawn) [compound 124], at M1 muscarinic receptor, the “M1 Activity” value is given as “xxx (activity was measured to be less than 0.1 μM)” and the Emax is under 65%. On M4 muscarinic receptor, the “M4 Activity” value is “xx (activity was measured to be between 0.1 μM and 1.0 μM)”; the Emax was under 65%.

For `O=C(OC1CCC1)N1CC2(CCN(C3CC4CCC(C3)N4C(=O)O[C@H]3CCOC3)CC2)c2cc(F)ccc21` (stereo partly drawn) [compound 125], at M1 muscarinic receptor, the “M1 Activity” value is “xxx (activity was measured to be less than 0.1 μM)” and the Emax was 65 to 85%. At M4 muscarinic receptor, the “M4 Activity” value was “xx (activity was measured to be between 0.1 μM and 1.0 μM)”; the Emax was under 65%.

For `CCOC(=O)N1CCC(N2CCC3(CC2)CN(C(C)=O)c2ccc(-c4ccccc4)cc23)CC1` [compound 126], at M1 muscarinic receptor, the “M1 Activity” value was “xxx (activity was measured to be less than 0.1 μM)” and the Emax was under 65%. Moreover, on M4 muscarinic receptor, the “M4 Activity” value is “x (activity was measured to be greater than 1.0 μM)” and the Emax is under 65%.

As to `C#CCCOC(=O)N1CCC(N2CCC3(CC2)CN(C(=O)N(C)C)c2ccc(F)cc23)CC1` [compound 127], on M1 muscarinic receptor, the “M1 Activity” value was “xxx (activity was measured to be less than 0.1 μM)” and the Emax was 65 to 85%. For the same molecule, on M4 muscarinic receptor, the “M4 Activity” value was “xx (activity was measured to be between 0.1 μM and 1.0 μM)”; the Emax is under 65%.

As for `CCOC(=O)N1CCC(N2CCC3(CC2)CN(C(C)=O)c2ccc(-c4ccoc4)cc23)CC1` [compound 128], on M1 muscarinic receptor, the “M1 Activity” value is reported as “xxx (activity was measured to be less than 0.1 μM)” and the Emax is under 65%. On M4 muscarinic receptor, the “M4 Activity” value was “xx (activity was measured to be between 0.1 μM and 1.0 μM)”; the Emax was under 65%.

As for `COC(=O)N1CCC(CN2CCC3(CC2)CN(C(C)=O)c2ccc(F)cc23)CC1` [compound 129], on M1 muscarinic receptor, the “M1 Activity” value is listed as “xxx (activity was measured to be less than 0.1 μM)” and the Emax is 65 to 85%. On M4 muscarinic receptor, the “M4 Activity” value is reported as “x (activity was measured to be greater than 1.0 μM)” and the Emax is under 65%.

`CN(C)C(=O)N1CC2(CCN(C3CC4CCC(C3)N4C(=O)O[C@H]3CCOC3)CC2)c2cc(F)ccc21` (stereo partly drawn) [compound 130]: on M1 muscarinic receptor, the “M1 Activity” value is on record as “xxx (activity was measured to be less than 0.1 μM)” and the Emax is under 65%. For the same molecule, on M4 muscarinic receptor, the “M4 Activity” value was “xx (activity was measured to be between 0.1 μM and 1.0 μM)”; the Emax is under 65%.

In the case of `CCCC1CCC(N2CCC3(CC2)CN(C(C)=O)c2ccc(F)cc23)CC1` (stereo not drawn) [compound 131], at M1 muscarinic receptor, the “M1 Activity” value is recorded as “xxx (activity was measured to be less than 0.1 μM)” and the Emax lay in the range of 65 to 85%. On M4 muscarinic receptor, the “M4 Activity” value was “xx (activity was measured to be between 0.1 μM and 1.0 μM)”; the Emax is over 85%.

For the molecule `COC(=O)N1CCCC(N2CCC3(CC2)CN(C(C)=O)c2ccc(F)cc23)CC1` (stereo not drawn) [compound 132], on M1 muscarinic receptor, the “M1 Activity” value was “xxx (activity was measured to be less than 0.1 μM)” and the Emax was over 85%. Further, on M4 muscarinic receptor, the “M4 Activity” value was “xxx (activity was measured to be less than 0.1 μM)” and the Emax was over 85%.

On to `O=C(OC1CCCC1)N1C2CCC1CC(N1CCC3(CC1)COc1ccc(F)cc13)C2` (stereo not drawn) [compound 133], for which, at M1 muscarinic receptor, the “M1 Activity” value is recorded as “xxx (activity was measured to be less than 0.1 μM)” and the Emax was over 85%. Further, at M4 muscarinic receptor, the “M4 Activity” value is “xx (activity was measured to be between 0.1 μM and 1.0 μM)”; the Emax was in the range of 65 to 85%.

For `O=C(C1CCC1)N1C2CCC1CC(N1CCC3(CC1)COc1ccc(F)cc13)C2` (stereo not drawn) [compound 134], at M1 muscarinic receptor, the “M1 Activity” value is given as “xxx (activity was measured to be less than 0.1 μM)” and the Emax is over 85%. For the same molecule, at M4 muscarinic receptor, the “M4 Activity” value was “xx (activity was measured to be between 0.1 μM and 1.0 μM)”; the Emax was under 65%.

Take `CC(=O)N1CC2(CCN(CC3CCOC3)CC2)c2cc(F)ccc21` (stereo not drawn) [compound 135]: on M1 muscarinic receptor, the “M1 Activity” value is listed as “xxx (activity was measured to be less than 0.1 μM)” and the Emax is over 85%. For the same molecule, on M4 muscarinic receptor, the “M4 Activity” value was “xx (activity was measured to be between 0.1 μM and 1.0 μM)”; the Emax is over 85%.

Turning to `CCOC(=O)N1CCC(N2CCC3(CC2)CN(C(=O)C2CC2)c2ccc(F)cc23)CC1` [compound 136], at M1 muscarinic receptor, the “M1 Activity” value was “xxx (activity was measured to be less than 0.1 μM)” and the Emax was over 85%. Further, on M4 muscarinic receptor, the “M4 Activity” value is on record as “xxx (activity was measured to be less than 0.1 μM)” and the Emax was over 85%.

In the case of `CCOC(=O)N1CCC(N2CCC3(CC2)CN(C(C)=O)c2ccc(CC)cc23)CC1` [compound 137], at M1 muscarinic receptor, the “M1 Activity” value was “xxx (activity was measured to be less than 0.1 μM)” and the Emax is over 85%. Besides, on M4 muscarinic receptor, the “M4 Activity” value is given as “x (activity was measured to be greater than 1.0 μM)” and the Emax was over 85%.

Consider `CC(=O)N1CC2(CCN(C3CC4CCC3C4)CC2)c2cc(C)ccc21` (stereo not drawn) [compound 138], for which, at M1 muscarinic receptor, the “M1 Activity” value is “xxx (activity was measured to be less than 0.1 μM)” and the Emax is 65 to 85%. For the same molecule, at M4 muscarinic receptor, the “M4 Activity” value is reported as “x (activity was measured to be greater than 1.0 μM)” and the Emax is 65 to 85%.

With `CC(C)OC(=O)N1C2CCC1CC(N1CCC3(CC1)C(=O)Nc1ccccc13)C2` (stereo not drawn) [compound 139], on M1 muscarinic receptor, the “M1 Activity” value is reported as “xxx (activity was measured to be less than 0.1 μM)” and the Emax is over 85%. Further, at M4 muscarinic receptor, the “M4 Activity” value is on record as “xxx (activity was measured to be less than 0.1 μM)” and the Emax is over 85%.

As for `CC(=O)N1CC2(CCN(C3CCN(C(=O)OC4CCC4)CC3)CC2)c2cc(F)ccc21` [compound 140], at M1 muscarinic receptor, the “M1 Activity” value is “xxx (activity was measured to be less than 0.1 μM)” and the Emax was over 85%. Besides, on M4 muscarinic receptor, the “M4 Activity” value is given as “xxx (activity was measured to be less than 0.1 μM)” and the Emax is over 85%.

With `CCOC(=O)N1CCC(N2CCC3(CC2)CN(C(C)=O)c2ccc(Cl)cc23)CC1` [compound 141], at M1 muscarinic receptor, the “M1 Activity” value is recorded as “xxx (activity was measured to be less than 0.1 μM)” and the Emax was over 85%. On M4 muscarinic receptor, the “M4 Activity” value was “xx (activity was measured to be between 0.1 μM and 1.0 μM)”; the Emax was over 85%.

In the case of `CCOC(=O)N1CCC(N2CCC3(CC2)CN(C(=O)C(C)C)c2ccc(F)cc23)CC1` [compound 142], on M1 muscarinic receptor, the “M1 Activity” value is listed as “xxx (activity was measured to be less than 0.1 μM)” and the Emax lay within 65 to 85%. At M4 muscarinic receptor, the “M4 Activity” value is reported as “x (activity was measured to be greater than 1.0 μM)” and the Emax was over 85%.

For the molecule `CCOC(=O)N1CCC(N2CCC3(CC2)CN(C(=O)c2cccnc2)c2ccc(F)cc23)CC1` [compound 144], on M1 muscarinic receptor, the “M1 Activity” value is listed as “xxx (activity was measured to be less than 0.1 μM)” and the Emax is over 85%. Also, on M4 muscarinic receptor, the “M4 Activity” value is “xxx (activity was measured to be less than 0.1 μM)” and the Emax was over 85%.
